# Measured values: patent US9889176B2, “Treating renal and liver dysfunction with TLR4 antagonists” (YAQRIT LIMITED, priority 2010, dated 2018)
# Experiments:
# [1] = system: bile duct ligated (BDL) rat; experiment: Bile duct ligated (BDL) rat model of cirrhosis with or without LPS: renal dysfunction, selective gut decontamination; type: in vivo, Sprague-Dawley rats; conditions: for kidney TLR4 protein expression (Western Blot) / plasma creatinine: Norfloxacin 20 mg/kg orally for 10 days; for kidney TLR4 protein expression (Western Blot): FIG. 9; for NFkBp65 expression in Kidney: FIG. 10; for plasma creatinine: FIG. 8
# Source text: These experiments utilised an established animal model of cirrhosis, the bile duct ligated (BDL) rat. BDL rats may be generated by methods known in the art. For example, male Sprague-Dawley rats (200-250 g) may be used for this procedure. Following anaesthetisation, a mid-line laparotamy may be performed, the bile duct exposed, triply ligated with 4.0 silk suture, and severed between the second and third ligature. The wound is then closed in layers with absorbable suture, and the animal allowed to recover in a quiet room before being returned to the animal storage facility. 6 groups of Sprague-Dawley rats were studied: n=6 in each group. […] The aims of this study was to determine (1) Whether cirrhosis is associated with an upregulation of TLR4, NFkB and proinflammatory cytokines in kidney. […] Biochemistry: Functional aspect of Kidneys was assessed by measuring plasma creatinine. Protein expression of TLR4 and NFkBp65 was assessed using a commonly used Western Blot technique. Localisation of TLR4 and Caspase (effector protein leading to cell death) was done by Immunohistochemistry. Cytokines were quantified using the ELISA bead array.
# [2] = system: BDL rats; experiment: Brain TLR4 expression, brain water and survival in BDL rats with or without LPS; type: in vivo; conditions: for brain TLR4 immunohistochemistry: FIG. 23
# Source text: These experiments utilised an established animal model of cirrhosis, the bile duct ligated (BDL) rat. BDL rats may be generated by methods known in the art. For example, male Sprague-Dawley rats (200-250 g) may be used for this procedure. Following anaesthetisation, a mid-line laparotamy may be performed, the bile duct exposed, triply ligated with 4.0 silk suture, and severed between the second and third ligature. The wound is then closed in layers with absorbable suture, and the animal allowed to recover in a quiet room before being returned to the animal storage facility. 6 groups of Sprague-Dawley rats were studied: n=6 in each group. […] Experiments were carried out using Sham treated and BDL rats as described above.
# [3] = BDL and BDL+LPS groups, FIG. 13
structure (smiles),measurement,setting,value
CCn1cc(C(=O)O)c(=O)c2cc(F)c(N3CCNCC3)cc21 [Norfloxacin],kidney TNFα,"[1]; BDL and BDL+LPS groups, FIG. 11",prevented the rise
same,Kidney IL6 (local IL6 production),"[1]; BDL and BDL+LPS groups, FIG. 12",no effect
same,plasma IL6 (systemic proinflammatory cytokine),[1]; [3],reducing the secretion of cytokines
same,plasma TNFα (systemic proinflammatory cytokine),[1]; [3],reducing the secretion of cytokines
same,"kidney caspase 3 (cell death), immunohistochemistry","[1]; BDL and BDL+LPS groups, FIG. 16",reduction in the caspase positivity
same,kidney TLR4 protein expression (Western Blot),"[1]; BDL group administered LPS, p=0.02",reduced
same,NFkBp65 expression in Kidney,"[1]; BDL rats administered LPS, p=0.01",attenuated
same,plasma creatinine,"[1]; BDL rats, p=0.02",reduction
same,kidney TLR4 protein expression (Western Blot),"[1]; BDL rats, p=0.02",reduced
same,NFkBp65 expression in Kidney,"[1]; BDL rats, p=0.02",attenuated
same,renal failure induced by LPS,"[1]; BDL rats, selective gut decontamination",prevents renal failure
same,plasma creatinine,"[1]; BDL+LPS rats, p=0.03",reduction
same,brain TLR4 immunohistochemistry,[2]; BDL animals treated with LPS,could be prevented
same,brain TLR4 immunohistochemistry,[2]; BDL animals,could be prevented
same,brain TLR4 protein expression,"[2]; increase in BDL and BDL+LPS rats, FIG. 22",could be prevented
same,brain swelling measured by brain water,"[2]; increase in BDL and BDL+LPS rats, FIG. 24",could be prevented
